Among the data in patent US20240409556A1, “BENZOPIPERAZINE AND RELATED ANALOGS FOR INHIBITING YAP/TAZ-TEAD” (Springworks Therapeutics, Inc., priority 2023, published 2024) are IC50 values, retold here.

Some results are limits rather than exact numbers.

The first assay deals with YAP/TAZ-TEAD transcription. Kind of assay: Reporter gene assay for measuring the inhibition of YAP/TAZ-TEAD transcription (TEAD-responsive element luciferase reporter in Hek293T cells). In kind it is cell-based. As to conditions: 24 hours incubation. On the procedure:
Example 56: Activity of Compounds of the Disclosure in a Reporter Gene Assay for Measuring the Inhibition of YAP/TAZ-TEAD Transcription
Hek293T cells were cultured in DMEM supplemented with 10% fetal bovine serum, Sodium pyruvate, Sodium bicarbonate, L-glutamine. The cells were harvested and transiently transfected with TEAD-responsive element luciferase reporter. Transfected cells were plated in 384-well plate containing pre-diluted compounds. After 24 hours incubation at 37° C./5% CO2, assay plates were cooled to room temperature and levelled to an equal volume per well, prior to the addition of 25 uL luciferase substrate SteadyLite (Perkin Elmer)/well. The plate was shaken for 10 min at 600 rpm, centrifuged for 1 min at 500 rpm and measured with an Envision reader (PerkinElmer). The amount of relative light units produced by the TEAD reporter was used to calculate the percentage of inhibition.
The percent of reporter inhibition was calculated in the presence of a positive control inhibitor (100% inhibition) versus a condition with the presence of the vehicle basal activity of the reporter (0% inhibition). The ability of a test compound to inhibit this activity was determined as: Percentage inhibition=[[…]((RLU determined in the presence of vehicle−RLU determined for sample with test compound present) divided by (RLU determined in the presence of vehicle−RLU determined for sample with positive control inhibitor))]*100.
The activities of example compounds tested are depicted in Table 3. The activity ranges A, B and C refer to IC50 values in the reporter gene assay as follows: “A”: IC50<1 μM; “B”: 1 μM≤IC50≤10 μM and “C”: IC50>10 μM; NT=not tested.
Molecule `CC(=O)N1CCN2c3ccccc3N(c3ccc(C(F)(F)F)cc3)CC2C1` (single isomer, unassigned) [15-En1, (R)- or (S)-1-(6-(4-(trifluoromethyl)phenyl)-1,2,4,4a,5,6-hexahydro-3H-pyrazino[1,2-a]quinoxalin-3-yl)ethan-1-one] came in with a 50% inhibitory concentration (IC50) of 1000 to 10000 nM.
`CC(=O)N1CCN2c3ncccc3N(c3ccc(C(F)(F)F)cc3)CC2C1` (single isomer, unassigned) [29-En2, (R)- or (S)-1-(5-(4-(trifluoromethyl)phenyl)-5,6,6a,7,9,10-hexahydro-8H-pyrazino[1,2-a]pyrido[3,2-e]pyrazin-8-yl)ethan-1-one] displayed an IC50 of less than 1000 nM.
In turn, `CNS(=O)(=O)N1CCN2c3ccccc3N(c3ccc(C(F)(F)F)cc3)CC2C1` (single isomer, unassigned) [32-En1, (R)- or (S)-N-methyl-6-(4-(trifluoromethyl)phenyl)-1,2,4,4a,5,6-hexahydro-3H-pyrazino[1,2-a]quinoxaline-3-sulfonamide] registered an IC50 of less than 1000 nM.
Turning to `CC(=O)NCC1CN(c2ccc(C(F)(F)F)cc2)c2ccccc2N1` (single isomer, unassigned) [34-En1, (R)- or (S)-N-((4-(4-(trifluoromethyl)phenyl)-1,2,3,4-tetrahydroquinoxalin-2-yl)methyl)acetamide], the IC50 was less than 1000 nM.
In the case of `CC(=O)NCC1CN(c2ccc(C(F)(F)F)cc2)c2ccccc2O1` (single isomer, unassigned) [36-En2, (R)- or (S)-N-((4-(4-(trifluoromethyl)phenyl)-3,4-dihydro-2H-benzo[b][1,4]oxazin-2-yl)methyl)acetamide], the IC50 was less than 1000 nM.
Still for that read-out and setting: with `CC(=O)N1CCN2c3nccnc3N(c3ccc(C(F)(F)F)cc3)CC2C1` (single isomer, unassigned) [40-En2, (R)- or (S)-1-(5-(4-(trifluoromethyl)phenyl)-5,6,6a,7,9,10-hexahydro-8H-dipyrazino[1,2-a:2′,3′-e]pyrazin-8-yl)ethan-1-one] the figure was 1000 to 10000 nM; with `C=CC(=O)N1CCN2C(C1)CN(c1ccc(C(F)(F)F)cc1)C1CCC12` (single isomer, unassigned) [42(Dia2), 1-(3-(4-(trifluoromethyl)phenyl)decahydro-6H-cyclobuta[e]pyrazino[1,2-a]pyrazin-6-yl)prop-2-en-1-one], less than 1000 nM; with `CNS(=O)(=O)N1CCN2c3ncccc3N(c3ccc(C(F)(F)F)cc3)CC2C1` (single isomer, unassigned) [45-En1, (R)- or (S)-N-methyl-5-(4-(trifluoromethyl)phenyl)-5,6,6a,7,9,10-hexahydro-8H-pyrazino[1,2-a]pyrido[3,2-e]pyrazine-8-sulfonamide], less than 1000 nM.
`CC(C)C(=O)N1CCN2c3ncccc3N(c3ccc(C(F)(F)F)cc3)CC2C1` (single isomer, unassigned) [47-En2, (R)- or (S)-2-methyl-1-(5-(4-(trifluoromethyl)phenyl)-5,6,6a,7,9,10-hexahydro-8H-pyrazino[1,2-a]pyrido[3,2-e]pyrazin-8-yl)propan-1-one] showed a 50% inhibitory concentration (IC50) of less than 1000 nM.
Take `CC(=O)NCC1CN(c2ccc(C(F)(F)F)cc2)c2cccnc2O1` (single isomer, unassigned) [49-En2, (R)- or (S)-N-((1-(4-(trifluoromethyl)phenyl)-2,3-dihydro-1H-pyrido[2,3-b][1,4]oxazin-3-yl)methyl)acetamide]: the 50% inhibitory concentration (IC50) lay in the range of 1000 to 10000 nM.
The molecule `CNC(=O)N1CCN2c3ncccc3N(c3ccc(C(F)(F)F)cc3)CC2C1` (single isomer, unassigned) [52-En1, (R)- or (S)-N-methyl-5-(4-(trifluoromethyl)phenyl)-5,6,6a,7,9,10-hexahydro-8H-pyrazino[1,2-a]pyrido[3,2-e]pyrazine-8-carboxamide] showed an IC50 of less than 1000 nM.
`COc1ccc2c(n1)OC(CNC(C)=O)CN2c1ccc(C(F)(F)F)cc1` (single isomer, unassigned) [73-En1, (R)- or (S)-N-((6-methoxy-1-(4-(trifluoromethyl)phenyl)-2,3-dihydro-1H-pyrido[2,3-b][1,4]oxazin-3-yl)methyl)acetamide] came in with an IC50 greater than 10000 nM.
Turning to `COc1ccc2c(n1)OC(CNC(C)=O)CN2c1ccc(C(F)(F)F)cc1` (single isomer, unassigned) [73-En2, (R)- or (S)-N-((6-methoxy-1-(4-(trifluoromethyl)phenyl)-2,3-dihydro-1H-pyrido[2,3-b][1,4]oxazin-3-yl)methyl)acetamide], the concentration for half-maximal inhibition (IC50) is less than 1000 nM.
On the same count and under the same terms, then `CC(=O)NCC1CN(c2ccc(C(F)(F)F)cc2)c2cc(Cl)cnc2O1` (single isomer, unassigned) [75-En1, (R)- or (S)-N-((7-chloro-1-(4-(trifluoromethyl)phenyl)-2,3-dihydro-1H-pyrido[2,3-b][1,4]oxazin-3-yl)methyl)acetamide], with greater than 10000 nM.
Regarding `CC(=O)NCC1CN(c2ccc(C(F)(F)F)cc2)c2ccc(C)nc2O1` (single isomer, unassigned) [77-En2, (R)- or (S)-N-((6-methyl-1-(4-(trifluoromethyl)phenyl)-2,3-dihydro-1H-pyrido[2,3-b][1,4]oxazin-3-yl)methyl)acetamide], the IC50 is less than 1000 nM.
`CC(=O)N1CC(=O)N2c3ccccc3N(c3ccc(C(F)(F)F)cc3)CC2C1` (single isomer, unassigned) [79-En1, (R)- or (S)-3-acetyl-6-(4-(trifluoromethyl)phenyl)-2,3,4,4a,5,6-hexahydro-1H-pyrazino[1,2-a]quinoxalin-1-one] displayed a 50% inhibitory concentration (IC50) greater than 10000 nM.
`CC(=O)N1CC(=O)N2c3ccccc3N(c3ccc(C(F)(F)F)cc3)CC2C1` (single isomer, unassigned) [79-En2, (R)- or (S)-3-acetyl-6-(4-(trifluoromethyl)phenyl)-2,3,4,4a,5,6-hexahydro-1H-pyrazino[1,2-a]quinoxalin-1-one] gave a half-maximal inhibitory concentration (IC50) of less than 1000 nM.
In turn, `CC(=O)NCC1CN(c2ccc(C(F)(F)F)cc2)c2ccc(C3CC3)nc2O1` (single isomer, unassigned) [81-En2, (R)- or (S)-N-((6-cyclopropyl-1-(4-(trifluoromethyl)phenyl)-2,3-dihydro-1H-pyrido[2,3-b][1,4]oxazin-3-yl)methyl)acetamide] came in with a half-inhibitory concentration (IC50) of less than 1000 nM.
In turn, `CC(=O)NCC1CN(c2ccc(C(F)(F)F)cc2)c2ccc(N(C)C)nc2O1` (single isomer, unassigned) [87-En2, (R)- or (S)-N-((6-(dimethylamino)-1-(4-(trifluoromethyl)phenyl)-2,3-dihydro-1H-pyrido[2,3-b][1,4]oxazin-3-yl)methyl)acetamide] came in with a half-inhibitory concentration (IC50) of less than 1000 nM.
Molecule `FC(F)(F)c1ccc(N2CC3CC(c4nnn[nH]4)CCN3c3ccccc32)cc1` (single isomer, unassigned) [121-D2, 8-(1H-tetrazol-5-yl)-5-(4-(trifluoromethyl)phenyl)-6,6a,7,8,9,10-hexahydro-5H-pyrido[1,2-a]quinoxaline] registered an IC50 of less than 1000 nM.
In the case of `FC(F)(F)c1ccc(N2CC3CC(c4nnn[nH]4)CCN3c3ccccc32)cc1` (single isomer, unassigned) [121-D3, 8-(1H-tetrazol-5-yl)-5-(4-(trifluoromethyl)phenyl)-6,6a,7,8,9,10-hexahydro-5H-pyrido[1,2-a]quinoxaline], the IC50 fell in the range of 1000 to 10000 nM.
`FC(F)(F)c1ccc(N2CC3CC(c4nnn[nH]4)CCN3c3ccccc32)cc1` (single isomer, unassigned) [121-D4, 8-(1H-tetrazol-5-yl)-5-(4-(trifluoromethyl)phenyl)-6,6a,7,8,9,10-hexahydro-5H-pyrido[1,2-a]quinoxaline] gave an IC50 of less than 1000 nM.

The same assay, now with this note: Homo sapiens, HEK-293T, 24 h, 24 hours incubation.
For `C=CC(=O)N1CCN2C(C1)CN(c1ccc(C(F)(F)F)cc1)C1CCC12` (single isomer, unassigned) [42(Dia1), 1-(3-(4-(trifluoromethyl)phenyl)decahydro-6H-cyclobuta[e]pyrazino[1,2-a]pyrazin-6-yl)prop-2-en-1-one], the 50% inhibitory concentration (IC50) is less than 1000 nM.
`O=C(O)C1CCN2c3ncccc3N(c3ccc(C(F)(F)F)cc3)CC2C1` (single isomer, unassigned) [96A, (cis)- or (trans)-5-(4-(trifluoromethyl)phenyl)-6,6a,7,8,9,10-hexahydro-5H-dipyrido[1,2-a:3′,2′-e]pyrazine-8-carboxylic acid] gave an IC50 of less than 1000 nM.
Molecule `CC(=O)NCC1CN(c2ccc(C(F)(F)F)cc2)c2ccc(C#N)nc2O1` (single isomer, unassigned) [99-En1 or 99-En2, (R)- or (S)—N-((6-cyano-1-(4-(trifluoromethyl)phenyl)-2,3-dihydro-1H-pyrido[2,3-b][1,4]oxazin-3-yl)methyl)acetamide] displayed an IC50 of 1000 to 10000 nM.
In turn, `CC(=O)NCC1CN(c2ccc(C(F)(F)F)cc2)c2ccc(Br)nc2O1` (single isomer, unassigned) [compound 122, (R)- or (S)—N-((6-bromo-1-(4-(trifluoromethyl)phenyl)-2,3-dihydro-1H-pyrido[2,3-b][1,4]oxazin-3-yl)methyl)acetamide] displayed an IC50 of less than 1000 nM.
On the same count and under the same terms, then `C=CC(=O)N1CCN2c3ncccc3N(c3ccc(C(F)(F)F)cc3)CC2C1` (stereo not drawn) [28-En1, 1-(5-(4-(trifluoromethyl)phenyl)-5,6,6a,7,9,10-hexahydro-8H-pyrazino[1,2-a]pyrido[3,2-e]pyrazin-8-yl)prop-2-en-1-one], with less than 1000 nM.

One may read the IC50 as the midpoint of a concentration-inhibition curve. Low readings indicate greater potency in that assay, high ones weaker potency in that assay.
